Assay results published in PMC9377723 (Clinical Cancer Research, 2021).
Entries after “also recorded” stand apart in the source; their conditions may differ. Where two headings read alike, the source gives them in different places.

Tests used:
[1] = Steady-state plasma pharmacokinetics; assay type: in vivo, patients
[2] = system: plasma estradiol; assay: Plasma estradiol concentration, baseline vs cycle 3 day 15; assay type: in vivo, patients
[3] = system: HR+/HER2− advanced breast cancer; conditions: cited from earlier work
[4] = system: HR+/HER2− advanced breast cancer; assay type: in vivo, patients; conditions: for Median PFS: updated analysis
[5] = system: patients with HR+/HER2− advanced breast cancer; assay: MONALEESA-7 adverse events; assay type: in vivo; conditions: adverse event of special interest
[6] = patients less than 40 years of age

CN(C)C(=O)c1cc2cnc(Nc3ccc(N4CCNCC4)cn3)nc2n1C1CCCC1 [Ribociclib, ribociclib]
Drug–drug interaction between ribociclib and NSAI partner ([1]; in vivo): No drug–drug interactions; also recorded: no apparent drug–drug interaction
Patients with estradiol below the minimum detectable limit (0.5 pg/mL) ([2]; 86 of 90 patients): 96%
Mean percentage decrease in plasma estradiol concentration compared with baseline ([2]; patients who received an NSAI): 89%
Median OS, prespecified second interim (final) analysis ([3]; median follow-up 34.6 months): not reached
Median PFS (primary endpoint) ([3]; primary analysis): 23.8 months
mOS (median overall survival) ([4]; Age: <40 years): 51.3 months
mOS (median overall survival) ([4]; Age: ≥40 years): 58.8 months
Increase in survival over the MONALEESA-7 placebo arm ([4]; All patients): 22%
Kaplan–Meier estimated OS at 48 months (survival rate at 4 years) ([4]; All patients): 60%
Median chemotherapy-free survival (CFS) ([4]; All patients): 42.4 months
PFS2 HR (95% CI) vs placebo ([4]; All patients): 0.68
PFS2 Median ([4]; All patients): 44.2 mo
Patients who had died at data cut-off ([4]; All patients): 42%
Patients who received chemotherapy as a subsequent therapy at any time ([4]; All patients): 43%
Patients with disease progression on subsequent therapy or death (PFS2 events) ([4]; All patients): 53%
Patients with receipt of chemotherapy or death ([4]; All patients): 57%
Survival rate at 54 months ([4]; All patients): 53%
Improvement in OS over ET alone ([4]; All patients, 58.7 vs 48.0 months): 10.7 months
mOS (median overall survival) ([4]; All patients, median follow-up 53.5 months): 58.7 months
mOS (median overall survival) ([4]; Chemotherapy (metastatic): Yes): 47.2 months
mOS (median overall survival) ([4]; Disease-free interval: De novo): not reached
mOS (median overall survival) ([4]; Endocrine combination partner: NSAI and goserelin): 58.7 months
mOS (median overall survival) ([4]; Endocrine combination partner: Tamoxifen and goserelin): not estimable
Patients who died ([4]; Patients receiving an NSAI): 43%
Patients who died ([4]; Patients receiving tamoxifen): 39%
Delay in chemotherapy vs placebo, without censoring ([4]; difference in median chemotherapy-free survival): 16.0 month
Delay in chemotherapy vs placebo, censoring for death ([4]; difference in median time to first chemotherapy): 14.1 month
Median time to first chemotherapy (TTC) ([4]; in vivo): 50.9 months
Duration of first subsequent antineoplastic therapy after discontinuation of study treatment ([4]; overall): 7.5 months
Reduction in the risk of death [4, 6]: 35%
Median PFS [4, 6]: 29.7 months
Median PFS ([4]; patients ≥40 years of age): 26.4 months
Hepatobiliary toxicity, grade 3 or 4 [5]: 12%
Neutropenia, grade 3 or 4 [5]: 65%
Prolonged QT interval, grade 3 or 4 [5]: 2%

CC/C(=C(\c1ccccc1)c1ccc(OCCN(C)C)cc1)c1ccccc1 [Tamoxifen, tamoxifen]
Exposure with ribociclib versus placebo ([1]; tamoxifen 20 mg): approximately 2 times
